From patent US20090305894A1, “use of sulfonanilides as herbicide” (priority 2005, published 2009)

Experiments:
Format in all cases: in vivo
Veronica persica = assay: Herbicidal effect on weeds in dry field, spraying treatment to stems and leaves after sprouting (Test Example 5, Table 13); conditions: 80 g ai/ha, rated after 3 weeks
Method: (§1) The formulations of active compounds were obtained as emulsions by mixing 1 part by weight of the active compound with the carrier and emulsifier in the described amounts. The formulations were diluted with water so as to adjust a prescribed dosage.
(§2) In a greenhouse seeds of rice (cultivar: Balilla) and weeds (Brachiaria plantaginea, Cyperus esculntus, Cyperus iria L., Echinochloa colonum, Leptochloa chinensis, Ipomoea purpurea, and Sesbania exaltata) were inoculated on the surface layers of pots filled with 100 cm^2 of paddy field soil and covered with soil. Water was poured to produce wet state (water level 0 cm). The prescribed diluted solutions of the formulations of the respective active compounds obtained in the same manner as in Test Example 1 were sprayed on the soil of some pots on completion of the seeding and the solutions of the agents were sprayed over the plants from the above in the rest of the pots after the respective sample plants were grown in first- to third-1 eaf stage in the greenhouse. After one day from the treatment with the compound, water was poured in 3 cm depth. The herbicidal effects and herbicide damage on rice of the respective compounds were investigated after 3 weeks from the treatment. The herbicidal effect and herbicide damage on the rice were rated as 100% in the case of complete withering and 0% in the case of no herbicidal effect or no harm. When herbicidal effect was 80% or higher, it was determined to be practically applicable as herbicides. When the herbicide damage was 20% or lower, the safety of the herbicide was evaluated to be excellent.
(§3) In a green house one seed each of crops in dry field (Triticum aestivum) and weeds (Veronica persica and Viola mandshurica) were inoculated in the surface layer in one pot filled with 16 cm^2 of dry field soil and covered with soil. After the sample plants were grown to second- and third-leaf stages at the greenhouse, the prescribed diluted solutions of the formulations of the respective active compounds obtained in the same manner as in Test Example 1 were sprayed over the plants from the above. The herbicidal effect and herbicide damage on crops of the respective compounds were investigated after 3 weeks from the treatment. Evaluations of the herbicidal effect and herbicide damage were carried out in the same manner as in Test Example 3.

Viola mandshurica = assay: as above; conditions: 80 g ai/ha, rated after 3 weeks
Method: as §1, §2, §3

Triticum aestivum [1] = assay: Herbicide damage to crops in dry field, spraying treatment on soil before sprouting (Test Example 4, Table 12); conditions: 80 g ai/ha, rated after 3 weeks
Method: as §1, §2
(§4) In a greenhouse one seed each of crops in dry field (Triticum aestivum and Glycine max) and weeds (Echinochloa crus-gali and Setaria vividis) were inoculated in the surface layer in one pot filled with 16 cm^2 of dry field soil and covered with soil. The prescribed diluted solutions of the formulations of the respective active compounds obtained in the same manner as in Test Example 1 were sprayed to the soil upon the inoculation. The herbicidal effect and herbicide damage on crops of the respective compounds were investigated after 3 weeks from the treatment. Evaluations of the herbicidal effect and herbicide damage were carried out in the same manner as in Test Example 3. As the representative example, the test results of compound No. 1 and 24, and the comparative compound C-1 are shown in Table 12.

Glycine max = assay: as above; conditions: 80 g ai/ha, rated after 3 weeks
Method: as §1, §2, §4

Echinochloa crus-gali = assay: Herbicidal effect on weeds in dry field, spraying treatment on soil before sprouting (Test Example 4, Table 12); conditions: 80 g ai/ha, spraying to soil before sprouting, rated after 3 weeks
Method: as §1, §2, §4

Setaria vividis = assay: as above; conditions: 80 g ai/ha, spraying to soil before sprouting, rated after 3 weeks
Method: as §1, §2, §4

Triticum aestivum [2] = assay: Herbicide damage to crops in dry field, spraying treatment to stems and leaves after sprouting (Test Example 5, Table 13); conditions: 80 g ai/ha, rated after 3 weeks
Method: as §1
as §2, with “The herbicidal effects and herbicide damage on rice of the respective compounds were investigated after 3 weeks from the treatment. The herbicidal effect and herbicide damage on the rice were rated as 100% in the case of complete withering and 0% in the case of no herbicidal effect or no harm.” left out, “excellent. […]” for “excellent.”

rice (cultivar: Balilla) [3] = assay: Irrigated directly seeded paddy rice, herbicide damage, spraying to soil before sprouting (Test Example 3, Table 10); conditions: 20 g ai/ha, rated after 3 weeks
Method: as §1, §2

Brachiaria plantaginea [4] = assay: Irrigated directly seeded paddy rice, herbicidal effect, spraying to soil before sprouting (Test Example 3, Table 10); conditions: 20 g ai/ha, rated after 3 weeks
Method: as §1, §2

Ipomoea purpurea [5] = assay: as above; conditions: 20 g ai/ha, rated after 3 weeks
Method: as §1, §2

Echinochloa colonum [6] = assay: as above; conditions: 20 g ai/ha, rated after 3 weeks
Method: as §1, §2

Sesbania exaltata [7] = assay: as above; conditions: 20 g ai/ha, rated after 3 weeks
Method: as §1, §2

Leptochloa chinensis [8] = assay: as above; conditions: 20 g ai/ha, rated after 3 weeks
Method: as §1, §2

Cyperus iria L. [9] = assay: as above; conditions: 20 g ai/ha, rated after 3 weeks
Method: as §1, §2

Cyperus esculntus [10] = assay: as above; conditions: 20 g ai/ha, rated after 3 weeks
Method: as §1, §2

Brachiaria plantaginea [11] = assay: Irrigated directly seeded paddy rice, herbicidal effect, spraying to stems and leaves after sprouting (Test Example 3, Table 11); conditions: 20 g ai/ha, rated after 3 weeks
Method: as §1, §2

Ipomoea purpurea [12] = assay: as above; conditions: 20 g ai/ha, rated after 3 weeks
Method: as §1, §2

Echinochloa colonum [13] = assay: as above; conditions: 20 g ai/ha, rated after 3 weeks
Method: as §1, §2

Sesbania exaltata [14] = assay: as above; conditions: 20 g ai/ha, rated after 3 weeks
Method: as §1, §2

Leptochloa chinensis [15] = assay: as above; conditions: 20 g ai/ha, rated after 3 weeks
Method: as §1, §2

Cyperus iria L. [16] = assay: as above; conditions: 20 g ai/ha, rated after 3 weeks
Method: as §1, §2

Cyperus esculntus [17] = assay: as above; conditions: 20 g ai/ha, rated after 3 weeks
Method: as §1, §2

[18] = tested on: Scirpus juncoides Roxburgh (resistant to sulfonylurea type herbicide); assay: Herbicidal efficacy test to weeds resistant to sulfonylurea type herbicide (Test Example 1, applied on water surface, Table 8); conditions: 60 g ai/ha, applied on water surface at beginning of sprouting, rated after 3 weeks; 100% = complete withering, 0% = no effect
Method: (§5) Preparation of formulation of active compound
(§6) Carrier: DMF 5 parts by weight
(§7) Emulsifier: benzyloxypolyglycol ether 1 part by weight
as §1
(§8) In a greenhouse respective seeds of Scirpus juncoides Roxburgh (from Hokkaido, Japan) and Lindernia procumbens Philcox (from Saitama, Japan), which are confirmed to have resistance to a sulfonylurea type herbicide, were inoculated in pots filled with 500 cm^2 of paddy field soil and water was poured to the pot in about 2 to 3 cm depth. At the beginning of sprouting of the weeds, prescribed diluted solutions of the formulations of the respective active compounds obtained by the above-mentioned manner were applied on the water surface. After the treatment water depth of 3 cm was kept. The herbicidal effect was investigated after 3 weeks of the treatment. The herbicidal effect was rated as 100% in the case of complete withering and 0% in the case of no herbicidal effect. When the herbicidal effect was 80% or higher, the practical effectiveness as herbicides is recognized. As the representative examples, the test results of the compound Nos. 1, 3, 4, 5, 6, 7, 13, 70, 127, 128 and 130 are shown in Table 8.

rice (cultivar: Balilla) [19] = assay: Irrigated directly seeded paddy rice, herbicide damage, spraying to stems and leaves after sprouting (Test Example 3, Table 11); conditions: 20 g ai/ha, rated after 3 weeks
Method: as §1, §2

[20] = tested on: Lindernia procumbens Philcox (resistant to sulfonylurea type herbicide); assay: Herbicidal efficacy test to weeds resistant to sulfonylurea type herbicide (Test Example 1, applied on water surface, Table 8); conditions: 60 g ai/ha, applied on water surface at beginning of sprouting, rated after 3 weeks; 100% = complete withering, 0% = no effect
Method: as §5, §6, §7, §1, §8

## COc1cc(OC)nc(C(O)c2cccc(F)c2NS(=O)(=O)C(F)(F)F)n1 (stereo not drawn) [C-1, reference compound]
Veronica persica
  Herbicidal effect Veronica persica: 60%
Viola mandshurica
  Herbicidal effect Viola mandshurica: 30%
Triticum aestivum [1]
  Herbicide damage Triticum aestivum: 0%
Glycine max
  Herbicide damage Glycine max: 20%
Echinochloa crus-gali
  Herbicidal effect Echinochloa crus-gali: 0%
Setaria vividis
  Herbicidal effect Setaria vividis: 0%
Triticum aestivum [2]
  Herbicide damage Triticum aestivum: 0%

## COc1nc(OC)nc(C(=O)c2cccc(F)c2N(C)S(=O)(=O)C(F)F)n1 [Compound No. 1]
Rice (cultivar: Balilla) [3]
  Herbicide damage on Rice: 20%
Brachiaria plantaginea [4]
  Herbicidal effect Brachiaria plantaginea: 80%
Ipomoea purpurea [5]
  Herbicidal effect Ipomoea purpurea: 90%
Echinochloa colonum [6]
  Herbicidal effect Echinochloa colonum: 100%
Sesbania exaltata [7]
  Herbicidal effect Sesbania exaltata: 100%
Leptochloa chinensis [8]
  Herbicidal effect Leptochloa chinensis: 100%
Cyperus iria L. [9]
  Herbicidal effect Cyperusiria L.: 100%
Cyperus esculntus [10]
  Herbicidal effect Cyperus esculntus: 100%
Brachiaria plantaginea [11]
  Herbicidal effect Brachiaria plantaginea: 100%
Ipomoea purpurea [12]
  Herbicidal effect Ipomoea purpurea: 90%
Echinochloa colonum [13]
  Herbicidal effect Echinochloa colonum: 100%
Sesbania exaltata [14]
  Herbicidal effect Sesbania exaltata: 100%
Leptochloa chinensis [15]
  Herbicidal effect Leptochloa chinensis: 80%
Cyperus iria L. [16]
  Herbicidal effect Cyperusiria L.: 100%
Cyperus esculntus [17]
  Herbicidal effect Cyperus esculntus: 100%
Triticum aestivum [1]
  Herbicide damage Triticum aestivum: 0%
Glycine max
  Herbicide damage Glycine max: 20%
Echinochloa crus-gali
  Herbicidal effect Echinochloa crus-gali: 90%
Setaria vividis
  Herbicidal effect Setaria vividis: 80%
[18]
  Herbicidal effect to sulfonylurea resistant weeds: Scirpus juncoides Roxburgh (from Hokkaido): 100%
Rice (cultivar: Balilla) [19]
  Herbicide damage on Rice: 20%

## COc1cc(OC)nc(C(Cl)c2cccc(F)c2NS(=O)(=O)C(F)F)n1 (stereo not drawn) [compound 13]
Veronica persica
  Herbicidal effect Veronica persica: 100%
Viola mandshurica
  Herbicidal effect Viola mandshurica: 100%
Triticum aestivum [2]
  Herbicide damage Triticum aestivum: 0%
[20]
  Herbicidal effect to sulfonylurea resistant weeds: Lindernia procumbens Philcox (from Saitama pref.): 100%
[18]
  Herbicidal effect to sulfonylurea resistant weeds: Scirpus juncoides Roxburgh (from Hokkaido): 100%
